Experimental findings from the supplement of paper PMC11208160 are described below.
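Note: IS621 bridge recombinase in Escherichia coli cells against a fixed T5 target plasmid.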

A short description of the series: recombinant UMI read abundance after kanamycin selection (control-corrected) (log10(CPM+1)); higher = more efficient recombination; extreme values may be limits of the assay; sequences stand for … in AGTGCAGAGAAAATCGGCCAGTTTTCTCTGCCTGCAGTCCGCATGCCGTGGGACCCCTTGGGTTCTAACCTGTTGCCTAGATTTATGCAGCGGACTGCCTTTCTCCCAAAGTGATAAACCGG…AGGTTGGTTTCACT; site = the 11-nt donor. How it is done:
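Pooled E. coli donor-specificity screen for the IS621 bridge recombinase. Each library member carries a reprogrammed 11-nt donor and a full-length LE bridge RNA expressed in cis from the natural promoter, with a paired donor-binding loop (8-nt LDG + 4-nt RDG) and a target-binding loop fixed to T5. It is co-electroporated with a T5 target plasmid; recombinase is induced with 0.07 mM IPTG and recombinants are selected on kanamycin. UMIs are counted as CPM, averaged over two biological replicates and corrected by the unselected control. Molecule = full bridge RNA written as DNA, built from the T5 scaffold: LDG = donor specificity nt 1-8, RDG = reverse complement of nt 8-11.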
In the case of “ACTCGAACATGGACCGGTTTTCCCGGTAATCCGTATTTGAG (site ACTCGAACTCT)”, the “recombinant UMI read abundance (log10)” value was found to be 1.16. As for “ACTCGAACATGGACCGGTTTTCCCGGTAATCCGTATTTGAG (site ACTGGAACTCT)”, the figure is 0.00958; as for “ACTCGAACATGGACCGGTTTTCCCGGTAATCCGTATTTGAG (site ACTTGAACTCT)”, 0.00429; as for “ACTCGGCCATGGACCGGTTTTCCCGGTAATCCGTATTTGGT (site ACTCGGCCTAC)”, 0.00855. As for “ACTCTCCCATGGACCGGTTTTCCCGGTAATCCGTATTTGGA (site ACTCTCCCTTC)”, the figure is 0.0237. As for “ACTGAAGCATGGACCGGTTTTCCCGGTAATCCGTATTTGTA (site ACTGAAGCTTA)”, the figure is 2.5; as for “ACTGAGACATGGACCGGTTTTCCCGGTAATCCGTATTTGGT (site AATGAGACTAC)”, 0.158; as for “ACTGAGACATGGACCGGTTTTCCCGGTAATCCGTATTTGGT (site ACTGAGACTAC)”, 1.53. On to “ACTGAGACATGGACCGGTTTTCCCGGTAATCCGTATTTGGT (site AGTGAGACTAC)”, for which the “recombinant UMI read abundance (log10)” value was 0.0694. For “ACTGAGACATGGACCGGTTTTCCCGGTAATCCGTATTTGGT (site ATTGAGACTAC)”, the “recombinant UMI read abundance (log10)” value came out at 0.541. As for “ACTGATGCATGGACCGGTTTTCCCGGTAATCCGTATTTGAC (site ACTGATGCTGT)”, the “recombinant UMI read abundance (log10)” value worked out at 2.08. As for “ACTGCACCATGGACCGGTTTTCCCGGTAATCCGTATTTGAG (site ACTGCACCTCT)”, the figure is 0.0235; as for “ACTGCTACATGGACCGGTTTTCCCGGTAATCCGTATTTGGT (site ACTGCTACTAC)”, 0.194; as for “ACTGTATCATGGACCGGTTTTCCCGGTAATCCGTATTTGCC (site ACAGTATCTTG)”, 0. The same measure for “ACTGTATCATGGACCGGTTTTCCCGGTAATCCGTATTTGCC (site ACTGTATCTGG)”: 2.92. Turning to “ACTTACTCATGGACCGGTTTTCCCGGTAATCCGTATTTGAC (site ACTTACTCTGT)”, the “recombinant UMI read abundance (log10)” value stood at 2.81.

Turning to “ACTTCGACATGGACCGGTTTTCCCGGTAATCCGTATTTGCA (site ACTTCGACTTG)”, the “recombinant UMI read abundance (log10)” value was determined as 1.84. As for “ACTTCTGCATGGACCGGTTTTCCCGGTAATCCGTATTTGCC (site ACTTCTGCTGG)”, the figure is 1.76; as for “ACTTCTTCATGGACCGGTTTTCCCGGTAATCCGTATTTGTC (site ACTTCTTCTGA)”, 0; as for “ACTTGCTCATGGACCGGTTTTCCCGGTAATCCGTATTTGTT (site ACTTGCTCTAA)”, 0.824. The same measure for “AGAAAAGCATGGACCGGTTTTCCCGGTAATCCGTATTTGCT (site AGAAAAGCTAG)”: 2.12; for “AGAAAAGCATGGACCGGTTTTCCCGGTAATCCGTATTTGCT (site AGAAACGCTAG)”: 0.464; for “AGAAAAGCATGGACCGGTTTTCCCGGTAATCCGTATTTGCT (site AGAAAGGCTAG)”: 1.38. As for “AGAAAAGCATGGACCGGTTTTCCCGGTAATCCGTATTTGCT (site AGAAATGCTAG)”, the figure is 0; as for “AGAAAGACATGGACCGGTTTTCCCGGTAATCCGTATTTGTA (site AGAAAGACTTA)”, 2.51. As to “AGAAAGACATGGACCGGTTTTCCCGGTAATCCGTATTTGTA (site AGGAAGACTTG)”, the “recombinant UMI read abundance (log10)” value was 0. As to “AGAAAGCCATGGACCGGTTTTCCCGGTAATCCGTATTTGCT (site AGAAAGACTAG)”, the “recombinant UMI read abundance (log10)” value was 0. For the sequence “AGAAAGCCATGGACCGGTTTTCCCGGTAATCCGTATTTGCT (site AGAAAGCCTAG)”, the “recombinant UMI read abundance (log10)” value came to 0. For “AGAAAGCCATGGACCGGTTTTCCCGGTAATCCGTATTTGCT (site AGAAAGGCTAG)”, the “recombinant UMI read abundance (log10)” value was determined as 0.

As for “AGAAAGCCATGGACCGGTTTTCCCGGTAATCCGTATTTGCT (site AGAAAGTCTAG)”, the “recombinant UMI read abundance (log10)” value was 2.3. The same measure for “AGAACAACATGGACCGGTTTTCCCGGTAATCCGTATTTGAT (site AGAACAACTAT)”: 1.63.

Consider “AGAACAACATGGACCGGTTTTCCCGGTAATCCGTATTTGCT (site TTTGTCCCTCC)”, for which the “recombinant UMI read abundance (log10)” value was determined as 0.00956. The same measure for “AGAACATCATGGACCGGTTTTCCCGGTAATCCGTATTTGCG (site AGAACATCTCG)”: 2.3; for “AGAACCCCATGGACCGGTTTTCCCGGTAATCCGTATTTGGT (site AGAACCCCTAC)”: 0.545; for “AGAACGGCATGGACCGGTTTTCCCGGTAATCCGTATTTGCT (site AGAAAGGCTAG)”: 1.08. The same measure for “AGAACGGCATGGACCGGTTTTCCCGGTAATCCGTATTTGCT (site AGAACGGCTAG)”: 2.35; for “AGAACGGCATGGACCGGTTTTCCCGGTAATCCGTATTTGCT (site AGAAGGGCTAG)”: 0. As for “AGAACGGCATGGACCGGTTTTCCCGGTAATCCGTATTTGCT (site AGAATGGCTAG)”, the figure is 0; as for “AGAACTACATGGACCGGTTTTCCCGGTAATCCGTATTTGAC (site AGAACTACTGT)”, 2.15; as for “AGAACTACATGGACCGGTTTTCCCGGTAATCCGTATTTGAC (site AGCACTACTGT)”, 0. Consider “AGAACTACATGGACCGGTTTTCCCGGTAATCCGTATTTGAC (site AGGACTACTGT)”, for which the “recombinant UMI read abundance (log10)” value came out at 0.849.

In the case of “AGAACTACATGGACCGGTTTTCCCGGTAATCCGTATTTGAC (site AGTACTACTGT)”, the “recombinant UMI read abundance (log10)” value worked out at 1.37.

“AGAAGAGCATGGACCGGTTTTCCCGGTAATCCGTATTTGGA (site AGAAGAGCTTC)”: the “recombinant UMI read abundance (log10)” value came to 1.81. The same measure for “AGAAGGGCATGGACCGGTTTTCCCGGTAATCCGTATTTGAG (site AGAAGGGCTCT)”: 1.64; for “AGAAGGGCATGGACCGGTTTTCCCGGTAATCCGTATTTGCT (site AGAAAGGCTAG)”: 1.73; for “AGAAGGGCATGGACCGGTTTTCCCGGTAATCCGTATTTGCT (site AGAACGGCTAG)”: 0.0144.

As to “AGAAGGGCATGGACCGGTTTTCCCGGTAATCCGTATTTGCT (site AGAAGGGCTAG)”, the “recombinant UMI read abundance (log10)” value was determined as 2.64. As for “AGAAGGGCATGGACCGGTTTTCCCGGTAATCCGTATTTGCT (site AGAATGGCTAG)”, the figure is 0.25; as for “AGAAGTCCATGGACCGGTTTTCCCGGTAATCCGTATTTGAA (site AGAAGTCCTTT)”, 1.33.

On to “AGACAATCATGGACCGGTTTTCCCGGTAATCCGTATTTGAG (site AGACAATCTCT)”, for which the “recombinant UMI read abundance (log10)” value is 2.98. With “AGACAATCATGGACCGGTTTTCCCGGTAATCCGTATTTGTA (site AGACAATCTTA)”, the “recombinant UMI read abundance (log10)” value is 2.63. As for “AGACACTCATGGACCGGTTTTCCCGGTAATCCGTATTTGGT (site AGACACTCTAC)”, the figure is 2.78.

For “AGACAGTCATGGACCGGTTTTCCCGGTAATCCGTATTTGAT (site AGACAGTCTAT)”, the “recombinant UMI read abundance (log10)” value came to 2.94.

For the sequence “AGACATCCATGGACCGGTTTTCCCGGTAATCCGTATTTGAC (site AAACATCCTGT)”, the “recombinant UMI read abundance (log10)” value amounted to 0. The same measure for “AGACATCCATGGACCGGTTTTCCCGGTAATCCGTATTTGAC (site ACACATCCTGT)”: 0.237. As for “AGACATCCATGGACCGGTTTTCCCGGTAATCCGTATTTGAC (site AGACATCCTGT)”, the figure is 0; as for “AGACATCCATGGACCGGTTTTCCCGGTAATCCGTATTTGAC (site ATACATCCTGT)”, 0.

For the sequence “AGACATGCATGGACCGGTTTTCCCGGTAATCCGTATTTGCC (site AGACATGCTGG)”, the “recombinant UMI read abundance (log10)” value turned out to be 3.01. As to “AGACGAACATGGACCGGTTTTCCCGGTAATCCGTATTTGTC (site AAACGAACTGA)”, the “recombinant UMI read abundance (log10)” value came to 0. The same measure for “AGACGAACATGGACCGGTTTTCCCGGTAATCCGTATTTGTC (site ACACGAACTGA)”: 0. As for “AGACGAACATGGACCGGTTTTCCCGGTAATCCGTATTTGTC (site AGACGAACTGA)”, the figure is 1.35; as for “AGACGAACATGGACCGGTTTTCCCGGTAATCCGTATTTGTC (site ATACGAACTGA)”, 0.731. As to “AGACGGGCATGGACCGGTTTTCCCGGTAATCCGTATTTGTC (site AGACGGGCTGA)”, the “recombinant UMI read abundance (log10)” value was 2.3. As for “AGAGCATCATGGACCGGTTTTCCCGGTAATCCGTATTTGGT (site AGAGCATCTAC)”, the figure is 2.89; as for “AGAGTAACATGGACCGGTTTTCCCGGTAATCCGTATTTGCA (site AGAGTAACTTG)”, 2.71.
